The values below come from EP0316690A2, “Agent for the treatment of ischemic heart diseases” (Dr. Karl Thomae GmbH, priority 1987, dated 1989).

The test system of assay [1] is glattmuskuläre coronare Muscarinrezeptoren. The assay is described as follows: Isolated perfused Langendorff heart: antagonism of the carbachol effect on coronary flow (CF). On the set-up: species or system Wistar Ratten. The following applies: for Coronarselektivität (Affinität für coronare vs. frequenzbeeinflussende M-Rezeptoren): comparison of CF and HR effects in the isolated rat heart; for pA₂-Werte Coronarflußeffekt CF: isolated rat heart, agonist Carbachol bolus 10⁻⁶ bis 10⁻²M, antagonist in perfusate, constant pressure 70 mm Hg. The method, then:
(§1) Meßparameter sind Herzfrequenz und Coronarfluß.
(§2) Männliche Wistar Ratten mit einem Körpergewicht zwischen 300 und 350 g wurden mit Pentobarbital (70 mg/kg i.p.) anaesthe siert. […] Die Herzen wurden über die Aorta mit Krebs-Henseleit-Puffer (KHB) retograd bei einem konstanten Druck von 70 mm Hg perfundiert. Die Zusammensetzung des KHB betrug in mM: Kochsalz 114, Kaliumchlorid 4,7, Natriumbicarbonat 23,6, Kaliumdihydrogenphosphat 1,2, Magnesiumsulfat 1,1, Calziumchlorid 2,5. 11 mM Glucose wurden als Substrat beigefügt. Die Herzfrequenz (HR) wurde durch einen Tachographen (IFD, Mülheim) gemessen, der Coronarfluß (CF) wurde mittels eines elektromagnetischen Flowmeters (IFD, Mülheim) in Verbindung mit einer Sonde in dem zuführenden Teil der Aorta bestimmt.
(§3) Nach einer 15-minütigen Stabilisierungsphase in allen Experimenten wurde die erste Dosis-Wirkungs-Kurve erstellt. Dies geschah durch die Gabe von dem Fluß angepaßten Bolus-Injektionen (0,01 ml/10 ml CF) mit ansteigenden Dosierungen von Carbachol (10⁻⁶ bis 10⁻²M). Danach wurde die niedrigste Dosis des Antagonisten dem Perfusat beigegeben und die Dosis-Wirkungs-Kurve erneut aufgenommen. Darauffolgend gab man eine höhere Dosis des Antagonisten zu und es wurde der Einfluß von Carbachol auf den Coronarfluß (CF) und die Herzfrequenz (HF) erneut durch die Aufnahme von Dosis-Wirkungs-Kurven quantifiziert.

Assay [2] addresses T1, frequenzbeeinflussende M-Rezeptoren (Rattus norvegicus, UniProt P10980).
T1 construct: danach das Herz entnommen; from tissue; host or cells: isolated perfused Langendorff heart of male Wistar rats
T1 sequence (P10980 1-466): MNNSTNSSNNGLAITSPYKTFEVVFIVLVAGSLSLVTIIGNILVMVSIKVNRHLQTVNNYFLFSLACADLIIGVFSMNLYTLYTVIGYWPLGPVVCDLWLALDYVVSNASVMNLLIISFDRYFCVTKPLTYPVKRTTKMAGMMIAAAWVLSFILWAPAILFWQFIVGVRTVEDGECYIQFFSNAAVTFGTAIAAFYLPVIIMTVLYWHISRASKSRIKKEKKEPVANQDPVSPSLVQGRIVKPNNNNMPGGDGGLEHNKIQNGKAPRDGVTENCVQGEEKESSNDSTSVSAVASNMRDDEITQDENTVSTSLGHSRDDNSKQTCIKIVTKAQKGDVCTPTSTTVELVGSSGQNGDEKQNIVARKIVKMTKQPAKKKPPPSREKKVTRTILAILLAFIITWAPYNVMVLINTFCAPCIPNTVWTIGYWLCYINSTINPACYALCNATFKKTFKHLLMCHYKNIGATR
The assay is described as follows: Isolated perfused Langendorff heart: antagonism of the negative chronotropic carbachol effect on heart rate (HR/HF). Also on record: species or system Wistar Ratten. The following applies: isolated spontaneously beating rat heart, agonist Carbachol bolus 10⁻⁶ bis 10⁻²M, antagonist in perfusate; read-out: pA₂-Werte Herzfrequenz-Effekt HR (converted). As for the experimental part:
as §1, §2, §3

`CN1C2CCC1CC(OC(=O)C(CO)c1ccccc1)C2` (racemic) [Atropin, reference compound]: the Kb in assay [1] (read-out: pA₂-Werte Coronarflußeffekt CF (converted)) was 0.631 nM.
With `CN1CCC(CC(=O)N2c3ccccc3C(=O)Nc3cccc(Cl)c32)CC1` (racemic) [Substanz I, 6-Chlor-5,10-dihydro-5-[(1-methyl-4-piperidinyl)acetyl]-11H-dibenzo[b,e][1,4]diazepin-11-on], in assay [1], the “Coronarselektivität (Affinität für coronare vs. frequenzbeeinflussende M-Rezeptoren)” value is given as “höhere Affinität für coronare als für frequenzbeeinflussende M-Rezeptoren” and the “pA₂-Werte Coronarflußeffekt CF” value is 7,9 ± 0,2. Besides, the Kb in assay [2] was 50.1 nM.
In the case of `CN1CCC(CC(=O)N2c3ccccc3C(=O)Nc3cccc(Cl)c32)CC1` (single isomer, unassigned) [Substanz II, (+)-6-Chlor-5,10-dihydro-5-[(1-methyl-4-piperidinyl)acetyl]-11H-dibenzo[b,e][1,4]diazepin-11-on], in assay [1], the “Coronarselektivität (Affinität für coronare vs. frequenzbeeinflussende M-Rezeptoren)” value was “höhere Affinität für coronare als für frequenzbeeinflussende M-Rezeptoren” and the “pA₂-Werte Coronarflußeffekt CF” value is reported as 8,2 ± 0,1. The Kb in assay [2] is 31.6 nM.
